According to paper PMC11532403 (Signal Transduction and Targeted Therapy, 2024):
Read-outs that look alike come from different tables or passages of the source.

Assays:
[1] = Phase 1 trial: plasma pharmacokinetics; type: in vivo; details: human, oral; for MRT inf: read-out: MRTINF_obs mean; for AUC(0-t): read-out: AUC0–12 h mean
Description: Serial plasma samples were also collected in each patient after the first dose and during multiple-dose administration on Cycle 1 Day 28.

RET-driven xenografts = experiment: RET-driven xenograft models, overall; type: in vivo, mice; details: for Effective tumor suppressant dose (mg/kg): tumor-bearing mice
Method: All procedures relating to animal handling, care, and treatment were performed according to the Beijing Laboratory Animal Management Regulations. 6-week-old male BALB/c nude mice were inoculated subcutaneously into the flank with Baf3-CCDC6-RET^WT (5*10^6 cells/ 0.1 mL/ each), Baf3-CCDC6-RET^M918T (5*10^6 cells/0.1 mL/each), Baf3-CCDC6-RET^V804M (5*10^6 cells/ 0.1 mL/ each), or HEK293T-KIF5B-RET^V804M (5*10^6 cells/ 0.1 mL/ each). Mice were randomized by tumor size into groups of 10 to 12 when tumor volume reached approximately 100-150 mm^3. […] Tumor size and body weight were measured two times each week, and tumor volume was calculated with the following formula: [length × (width)^2]/ 2. Statistical significance was calculated by using two-way ANOVA test to assess the difference in tumor volumes between the control (vehicle-treated) and treatment groups.
Supplementary Figure S1. […] Mice bearing Baf3-CCDC6-RET^WT (a), Baf3-CCDC6-RET^M918T (b) and Baf3-CCDC6-RET^V804M (c) xenograft and time course of treatment. Data represent mean ± standard error of the mean (SEM). There were 12 mice in each group in both models. d, Mice bearing HEK293T-KIF5B-RET^V804M xenograft and time course of treatment. Data represent mean ± SEM. There were 10 mice in each group in this model. […] Statistical analysis was performed using a two-way ANOVA test. *, […]; **, p < 0.01; ***, p < 0.001; ****, p < 0.0001. Abbreviations: bid, bis in die; mc, methyl cellulose; mpk, mg/Kg.

cardiovascular system = experiment: Cardiovascular safety pharmacology; type: in vivo; details: males 2, 4, 6 mg/kg; females 4, 8, 12 mg/kg oral
Method: In the safety pharmacological study of cardiovascular effects, four male and four female beagles with buried implants were selected. […] The animals were evaluated by cage-side and detailed clinical observations, electrocardiogram, heart rate, body temperature and blood pressure.

[2] = Plasma protein binding, rapid equilibrium dialysis; type: in vitro ADME; details: mouse, read-out: Plasma protein binding rate
CYP2C8 = target: T1, CYP2C8 (Homo sapiens, UniProt P10632); experiment: CYP inhibition in human liver microsomes; type: in vitro ADME; details: 0.5-25 μM
T1 construct: substrates of different CYP450 enzymes in mixed human liver microsomes; from tissue; host or cells: mixed human liver microsomes

[3] = Acute toxicity, single oral gavage; type: in vivo; details: SD, rat, in vivo, oral, read-out: MTD, single dose
SD rats = experiment: Acute toxicity, single oral gavage; type: in vivo; details: acute toxicity study in SD rats
[4] = Pharmacokinetics in beagles; type: in vivo; details: both sexes, beagle, dog, plasma, iv, 1 mg/kg i.v.
[5] = 20 mg, Cycle 1 Day 28, 20 mg QD (n = 1)
[6] = 40 mg, Cycle 1 Day 28, 40 mg BID (n = 3)
[7] = 80 mg, Cycle 1 Day 28, 80 mg BID (n = 3)
[8] = 120 mg, Cycle 1 Day 28, 120 mg BID (n = 3)
[9] = 200 mg, Cycle 1 Day 1, 200 mg BID (n = 9)

T1 sequence (P10632 whole entry): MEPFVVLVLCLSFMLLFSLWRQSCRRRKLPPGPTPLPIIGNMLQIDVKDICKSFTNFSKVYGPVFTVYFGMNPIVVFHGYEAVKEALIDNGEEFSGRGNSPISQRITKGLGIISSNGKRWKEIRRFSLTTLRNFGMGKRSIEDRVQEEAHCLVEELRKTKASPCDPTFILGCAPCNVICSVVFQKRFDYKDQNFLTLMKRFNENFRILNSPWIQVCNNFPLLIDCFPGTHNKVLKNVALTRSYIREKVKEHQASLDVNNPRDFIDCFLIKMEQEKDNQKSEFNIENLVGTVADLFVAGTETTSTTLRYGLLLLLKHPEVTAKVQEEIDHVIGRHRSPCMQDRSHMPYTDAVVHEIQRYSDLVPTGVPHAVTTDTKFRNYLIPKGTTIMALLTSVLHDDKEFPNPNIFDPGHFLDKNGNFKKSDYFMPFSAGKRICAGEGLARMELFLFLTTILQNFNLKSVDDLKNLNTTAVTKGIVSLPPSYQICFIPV

COc1ccc(CN2C3CC2CN(c2ccc(-c4cc(N5CC(C)(O)C5)cn5ncc(C#N)c45)cn2)C3)cn1 [SY-5007, 6-(3-hydroxy-3-methylazetidin-1-yl)-4-(6-(6-((6-methoxypyridin-3-yl)methyl)-3,6-diazabicyclo[3.1.1]heptan-3-yl)pyridin-3-yl)pyrazolo[1,5-a]pyridine-3-carbonitrile]
Cmax ([1]; 20 mg, Cycle 1 Day 28, 20 mg BID (n = 1), read-out: Cmax mean): 640 ng/mL | MRT inf ([1]; 20 mg, Cycle 1 Day 28, 20 mg BID (n = 1)): 9 h | half-life ([1]; 20 mg, Cycle 1 Day 28, 20 mg BID (n = 1), read-out: T1/2 mean (converted)): 7.3 h | Tmax ([1]; 20 mg, Cycle 1 Day 28, 20 mg BID (n = 1), read-out: Tmax mean): 0.5 h | AUC(0-t) [1, 5]: 2200 ng·h/mL | AUC(0-inf) ([1]; 20 mg, Cycle 1 Day 28, 20 mg QD (n = 1), read-out: AUCINF_obs mean): 2340 ng·h/mL | Cmax ([1]; 20 mg, Cycle 1 Day 28, 20 mg QD (n = 1), read-out: Cmax mean): 388 ng/mL | MRT inf [1, 5]: 7.7 h | half-life ([1]; 20 mg, Cycle 1 Day 28, 20 mg QD (n = 1), read-out: T1/2 mean (converted)): 6 h | Tmax ([1]; 20 mg, Cycle 1 Day 28, 20 mg QD (n = 1), read-out: Tmax mean): 1 h | AUC(0-t) [1, 6]: 5810 ng·h/mL | AUC(0-inf) ([1]; 40 mg, Cycle 1 Day 28, 40 mg BID (n = 3), read-out: AUCINF_obs mean): 7100 ng·h/mL | Cmax ([1]; 40 mg, Cycle 1 Day 28, 40 mg BID (n = 3), read-out: Cmax mean): 1280 ng/mL | MRT inf [1, 6]: 6.8 h | half-life ([1]; 40 mg, Cycle 1 Day 28, 40 mg BID (n = 3), read-out: T1/2 mean (converted)): 5 h | Tmax ([1]; 40 mg, Cycle 1 Day 28, 40 mg BID (n = 3), read-out: Tmax mean): 0.5 h | AUC(0-t) [1, 7]: 12600 ng·h/mL | AUC(0-inf) ([1]; 80 mg, Cycle 1 Day 28, 80 mg BID (n = 3), read-out: AUCINF_obs mean): 18800 ng·h/mL | Cmax ([1]; 80 mg, Cycle 1 Day 28, 80 mg BID (n = 3), read-out: Cmax mean): 1960 ng/mL | MRT inf [1, 7]: 8.2 h | half-life ([1]; 80 mg, Cycle 1 Day 28, 80 mg BID (n = 3), read-out: T1/2 mean (converted)): 5.5 h | Tmax ([1]; 80 mg, Cycle 1 Day 28, 80 mg BID (n = 3), read-out: Tmax mean): 1 h | AUC(0-t) [1, 8]: 21500 ng·h/mL | AUC(0-inf) ([1]; 120 mg, Cycle 1 Day 28, 120 mg BID (n = 3), read-out: AUCINF_obs mean): 34000 ng·h/mL | Cmax ([1]; 120 mg, Cycle 1 Day 28, 120 mg BID (n = 3), read-out: Cmax mean): 2870 ng/mL | MRT inf [1, 8]: 10.5 h | half-life ([1]; 120 mg, Cycle 1 Day 28, 120 mg BID (n = 3), read-out: T1/2 mean (converted)): 7 h | Tmax ([1]; 120 mg, Cycle 1 Day 28, 120 mg BID (n = 3), read-out: Tmax mean): 1 h | AUC(0-t) [1, 9]: 14900 ng·h/mL | AUC(0-inf) ([1]; 200 mg, Cycle 1 Day 1, 200 mg BID (n = 9), read-out: AUCINF_obs mean): 21600 ng·h/mL | Cmax ([1]; 200 mg, Cycle 1 Day 1, 200 mg BID (n = 9), read-out: Cmax mean): 3180 ng/mL | MRT inf [1, 9]: 15 h | half-life ([1]; 200 mg, Cycle 1 Day 1, 200 mg BID (n = 9), read-out: T1/2 mean (converted)): 23.9 h | Tmax ([1]; 200 mg, Cycle 1 Day 1, 200 mg BID (n = 9), read-out: Tmax mean): 1 h | AUC(0-inf) ([1]; single dose, 20 mg to 160 mg, read-out: AUCINF_obs range): 2410 to 21300 ng·h/mL | Cmax ([1]; single dose, 20 mg to 160 mg, read-out: Cmax range): 214 to 3470 ng/mL | half-life ([1]; single dose, read-out: Mean T1/2 across dose cohorts): 6.8 to 44.4 h | Tmax ([1]; single dose, read-out: Mean Tmax across dose cohorts): 0.5 to 4 h | Minimal effective dose (significant tumor growth inhibition in most models) (RET-driven xenografts; mouse, in vivo): 10 mg/kg BID | Effective tumor suppressant dose (mg/kg) (RET-driven xenografts; daily dose of 3 mg/kg BID): 6(3 mg/kg BID) | Effective tumor suppressant dose (mg/kg) (RET-driven xenografts; daily dose of 6 mg/kg BID): 12(6 mg/kg BID) | Cardiovascular effects (cardiovascular system): None of the changes were found to be related to the study drug | fraction unbound [2]: 0.01 | IC50 (CYP2C8): 9.75 µM | MTD ([3]; female, females): 500 mg/kg | MTD ([3]; male, males): 250 mg/kg | Kidney: urea (SD rats): elevated urea | clearance [4]: 6.63 mL/min/kg | half-life [4]: 3.27 h | Vd ([4]; read-out: Vss): 1.43 L/kg
